The source made the active and inactive calls. The rule behind the calls is not given here.
Columns and labels:
Format in all cases: cell-based
[1] = target: T1, Toll-like receptor 8 (Homo sapiens) (UniProt Q9NR97); assay: Activation of human TLR8 expressed in HEK-Blue cells assessed as increase in NF-kappaB activation at 5 to 25 uM incubated for 24 hrs by quanti-blue SEAP assay
T1 sequence (whole entry): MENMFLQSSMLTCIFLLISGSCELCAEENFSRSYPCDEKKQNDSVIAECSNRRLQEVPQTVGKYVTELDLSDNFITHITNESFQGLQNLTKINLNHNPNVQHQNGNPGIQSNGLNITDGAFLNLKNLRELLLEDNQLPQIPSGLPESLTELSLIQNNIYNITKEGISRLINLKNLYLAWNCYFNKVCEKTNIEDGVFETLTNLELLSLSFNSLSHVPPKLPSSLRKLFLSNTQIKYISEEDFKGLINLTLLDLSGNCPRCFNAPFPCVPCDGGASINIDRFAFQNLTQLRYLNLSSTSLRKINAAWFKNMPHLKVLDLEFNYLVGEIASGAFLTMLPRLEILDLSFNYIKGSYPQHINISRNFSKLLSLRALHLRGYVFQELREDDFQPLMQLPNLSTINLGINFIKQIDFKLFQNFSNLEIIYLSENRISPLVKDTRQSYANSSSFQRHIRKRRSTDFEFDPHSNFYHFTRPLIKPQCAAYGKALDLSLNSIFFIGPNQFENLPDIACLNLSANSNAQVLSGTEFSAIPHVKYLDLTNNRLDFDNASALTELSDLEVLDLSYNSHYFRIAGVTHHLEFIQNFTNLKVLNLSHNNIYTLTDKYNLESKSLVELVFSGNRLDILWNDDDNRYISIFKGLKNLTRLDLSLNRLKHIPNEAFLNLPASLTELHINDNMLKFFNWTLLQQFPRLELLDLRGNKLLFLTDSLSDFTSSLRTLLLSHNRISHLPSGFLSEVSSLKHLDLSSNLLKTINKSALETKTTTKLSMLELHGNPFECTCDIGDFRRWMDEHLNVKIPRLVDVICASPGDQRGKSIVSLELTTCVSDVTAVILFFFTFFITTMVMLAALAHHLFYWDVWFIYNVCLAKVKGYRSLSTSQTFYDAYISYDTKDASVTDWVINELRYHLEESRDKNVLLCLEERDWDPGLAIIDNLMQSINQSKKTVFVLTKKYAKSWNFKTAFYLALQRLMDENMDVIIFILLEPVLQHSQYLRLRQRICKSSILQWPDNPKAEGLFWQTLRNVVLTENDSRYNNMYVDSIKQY

[2] = Cytotoxicity against human HEK-Blue cells transfected with hTLR8 at 25 to 50 uM after 24 hrs by MTT assay
[3] = target: T1, Toll-like receptor 8 (Homo sapiens); assay: Antagonist activity at human TLR8 expressed in HEK-Blue cells assessed as reduction in CL075-induced NF-kappaB activation at 25 uM incubated for 1 hr followed by CL075-stimulation and measured after 24 hrs by quanti-blue SEAP assay relative to control
[4] = target: Toll-like receptor 2 (Homo sapiens) (UniProt O60603); assay: Antagonist activity at TLR2 in human THP1 cells assessed as inhibition of Pam2CSK4/Pam3CSK4-induced IL-8 secretion preincubated for 1 hr followed by Pam2CSK4/Pam3CSK4 stimulation and measured after 24 hrs by ELISA; conditions: concentration not given here
Toll-like receptor 2 (Homo sapiens), sequence (O60603 whole entry): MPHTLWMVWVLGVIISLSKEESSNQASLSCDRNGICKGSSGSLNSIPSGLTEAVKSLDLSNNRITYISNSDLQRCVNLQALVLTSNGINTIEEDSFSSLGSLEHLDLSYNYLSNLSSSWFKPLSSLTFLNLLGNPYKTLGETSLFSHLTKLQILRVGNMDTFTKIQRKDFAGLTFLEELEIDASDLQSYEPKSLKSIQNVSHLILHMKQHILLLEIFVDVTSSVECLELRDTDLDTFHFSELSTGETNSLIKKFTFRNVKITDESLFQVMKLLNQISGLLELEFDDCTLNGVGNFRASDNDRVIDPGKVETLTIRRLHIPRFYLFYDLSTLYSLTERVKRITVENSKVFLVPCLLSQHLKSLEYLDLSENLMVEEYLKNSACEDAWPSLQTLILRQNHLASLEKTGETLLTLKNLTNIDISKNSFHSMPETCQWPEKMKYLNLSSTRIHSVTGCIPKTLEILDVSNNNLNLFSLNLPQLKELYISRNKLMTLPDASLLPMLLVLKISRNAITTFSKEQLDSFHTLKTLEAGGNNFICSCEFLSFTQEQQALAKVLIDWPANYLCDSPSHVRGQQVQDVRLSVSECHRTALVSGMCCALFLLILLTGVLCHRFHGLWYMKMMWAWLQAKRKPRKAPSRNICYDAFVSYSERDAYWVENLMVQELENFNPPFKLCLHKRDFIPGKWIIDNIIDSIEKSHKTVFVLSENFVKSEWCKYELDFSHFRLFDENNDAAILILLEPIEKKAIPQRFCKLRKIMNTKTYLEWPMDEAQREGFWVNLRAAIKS

SMILES	Activity [1]	Activity [2]	inhibition [3]	inhibition [4]
CCCSc1nc2ccccc2[nH]1	inactive	Non-Toxic	–	–
Cc1[nH]c2ccccc2c1C(=O)C(=O)NCc1ccncc1	inactive	Non-Toxic	< 50%	40%
CC(C)OC(=O)CSc1nc2ccc[nH]c-2n1	inactive	Non-Toxic	–	–
CCn1cc(-c2cc(C(F)(F)F)nc(NCc3ccco3)n2)cn1	inactive	Non-Toxic	–	–
Oc1nc2ccccc2n1Cc1ccccc1	inactive	Non-Toxic	–	–
CCCCCCn1c(=O)[nH]c2ccccc21	inactive	Non-Toxic	–	–
C=CCNc1nc(-c2ccco2)cc(C(F)(F)F)n1	inactive	Non-Toxic	–	–
C=CCNc1nc(C)nc(N2NC(C)=CC2C)n1 (stereo not given)	inactive	Non-Toxic	–	–
CCOC(=O)c1ccc(NC(=O)C(CC)Sc2nc3ccccc3[nH]2)cc1 (stereo not given)	inactive	Non-Toxic	< 50%	–
COc1ccc(NC(=O)c2[nH]nc3ccccc23)cn1	inactive	Non-Toxic	–	–
CCCCC(=O)c1c(C)[nH]c2ccccc12	inactive	Non-Toxic	–	–

Source: ChEMBL document CHEMBL4304775, “Identification and characterization of a novel chemotype for human TLR8 inhibitors” (Eur J Med Chem, 2019)
